The values below come from patent publication US11274124B2, “Tubulysin analogues as anticancer agents and payloads for antibody-drug conjugates and methods of treatment therewith” (William Marsh Rice University, priority 2017, dated 2022).

Read-outs that look alike come from different tables or passages of the source.

In data set [1] the test system is MES SA (uterine sarcoma cell line). The data set is described as follows: In vitro cytotoxicity assay (CellTiter-Glo, 72 hours), MES SA. The class given is cell-based. Conditions: Homo sapiens, MES-SA, 72 h. Background: In ATP-based viability assays light output follows the ATP content of the culture.
The test system of data set [2] is HEK 293T (human embryonic kidney cancer cell line). The data set is described as follows: In vitro cytotoxicity assay (CellTiter-Glo, 72 hours), HEK 293T. The class given is cell-based. Conditions: Homo sapiens, HEK-293T, 72 h.
Data set [3] deals with MES SA DX (MES SA cell line with marked multi-drug resistance). The data set is described as follows: In vitro cytotoxicity assay (CellTiter-Glo, 72 hours), MES SA DX. Particulars: Homo sapiens, MES-SA, 72 h.
The subject of data set [4] is MES SA, MES SA DX and HEK 293T cells. As to the kind of experiment: In vitro cytotoxicity assay, structure-activity discussion over the cell lines tested. Particulars: refers to Tables 2 and 3.
[5] abbreviates: read-out: MES SA, IC50 Value in nM.
Where [6] appears, read: read-out: HEK 293T, IC50 Value in nM.
[7] abbreviates: read-out: MES SA DX, IC50 Value in nM.

Turning to `COC(=O)[C@@H](C)C[C@H](Cc1ccccc1)NC(=O)c1nc([C@@H](C[C@H](C(C)C)N(C)C(=O)[C@@H](NC(=O)[C@H]2CCCCN2C)C(C)C)OC(C)=O)sc1C(C)C` [Tb72, Methyl (2S,4R)-4-[({2-[(1R,3R)-1-acetoxy-4-methyl-3-{methyl[(2S)-3-methyl-2-({[(2R)-1-methyl-piperidin-2-yl]carbonyl}amino)butanoyl]amino}pentyl]-5-isopropyl-1,3-thiazol-4-yl}carbonyl)-amino]-2-methyl-5-phenylpentanoate], the IC50 – broadly, the concentration at which inhibition is half-maximal – in data set [1] (setting [5]) is 11.7 nM; in data set [2] (setting [6]) it was 4.02 nM; in data set [3] (setting [7]), greater than 70 nM. Also, the “cytotoxicity potency (in words, structure-activity discussion)” value (“cytotoxicity potency” below) in data set [4] was “significant loss of potency”.

Consider `CC(=O)O[C@H](C[C@H](C(C)C)N(C)C(=O)[C@@H](NC(=O)[C@H]1CCCCN1C)C(C)C)c1nc(C(=O)N[C@@H](Cc2ccccc2)C[C@H](C)C(=O)O)c(C(C)C)s1` [Tb73, (2S,4R)-4-[({2-[(1R,3R)-1-Acetoxy-4-methyl-3-{methyl[(2S)-3-methyl-2-({[(2R)-1-methylpiperidin-2-yl]carbonyl}amino)butanoyl]amino}pentyl]-5-isopropyl-1,3-thiazol-4-yl}carbonyl)amino]-2-methyl-5-phenylpentanoic acid], for which the IC50 was determined as 1.28 nM in data set [1] (read-out: MES SA, IC50); 1.28 nM in data set [1] (setting [5]); 0.16 nM in data set [2] (read-out: HEK 293T, IC50); 0.16 nM in data set [2] (setting [6]); 44.7 nM in data set [3] (read-out: MES SA DX, IC50); 44.7 nM in data set [3] (setting [7]). The “cytotoxicity potency” value in data set [4] is “significant loss of potency”.

Take `CCOC(=O)[C@@H](C)C[C@H](Cc1ccccc1)NC(=O)c1csc([C@@H](C[C@H](C(C)C)N(C)C(=O)CNC(=O)[C@H]2CCCCN2C)OC(C)=O)n1` [Tb88, Ethyl (2S,4R)-4-[({2-[(1R,3R)-1-acetoxy-4-methyl-3-{methyl[({[(2R)-1-methylpiperidin-2-yl]carbonyl}amino)acetyl]amino}pentyl]-1,3-thiazol-4-yl}carbonyl)amino]-2-methyl-5-phenylpentanoate]: the results for the IC50 in data set [1] (setting [5]), in data set [2] (setting [6]) and in data set [3] (setting [7]) were 458 nM, 494 nM and greater than 2500 nM, respectively. The “cytotoxicity potency” value in data set [4] is listed as “no significant activity”.

For `CCOC(=O)[C@@H](C)C[C@H](Cc1ccccc1)NC(=O)c1csc([C@@H](C[C@H](C(C)C)N(C)C(=O)[C@H](CC)NC(=O)[C@H]2CCCCN2C)OC(C)=O)n1` [Tb93, Ethyl (2S,4R)-4-[({2-[(1R,3R)-1-acetoxy-4-methyl-3-{methyl[(2S)-2-({[(2R)-1-methylpiperidin-2-yl]-carbonyl}amino)butanoyl]amino}pentyl]-1,3-thiazol-4-yl}carbonyl)amino]-2-methyl-5-phenylpentanoate], the IC50 in data set [1] (read-out: MES SA, IC50) amounted to 0.15 nM; in data set [1] (setting [5]), 0.15 nM; in data set [2] (read-out: HEK 293T, IC50), 0.2 nM; in data set [2] (setting [6]) it was 0.2 nM; in data set [3] (read-out: MES SA DX, IC50), 31.9 nM; in data set [3] (setting [7]), 31.9 nM. Moreover, in data set [4], the “cytotoxicity potency” value is on record as “significant potencies”.

Take `CC[C@H](NC(=O)[C@H]1CCCCN1C)C(=O)N(C)[C@H](C[C@@H](OC(C)=O)c1nc(C(=O)N[C@@H](Cc2ccccc2)C[C@H](C)C(=O)O)cs1)C(C)C` [Tb94, (2S,4R)-4-[({2-[(1R,3R)-1-acetoxy-4-methyl-3-{methyl[(2S)-2-({[(2R)-1-methylpiperidin-2-yl]carbonyl}amino)butanoyl]amino}pentyl]-1,3-thiazol-4-yl}carbonyl)amino]-2-methyl-5-phenylpentanoic acid]: the IC50 in data set [1] (read-out: MES SA, IC50) stood at 0.46 nM; in data set [1] (setting [5]), 0.46 nM; in data set [2] (read-out: HEK 293T, IC50), 0.4 nM; in data set [2] (setting [6]) it was 0.4 nM; in data set [3] (read-out: MES SA DX, IC50), 89.8 nM; in data set [3] (setting [7]), 89.8 nM. The “cytotoxicity potency” value in data set [4] was “significant potencies”.

On to `CCCC[C@H](NC(=O)[C@H]1CCCCN1C)C(=O)N(C)[C@H](C[C@@H](OC(C)=O)c1nc(C(=O)N[C@@H](Cc2ccccc2)C[C@H](C)C(=O)OCC)cs1)C(C)C` [Tb95, Ethyl (2S,4R)-4-[({2-[(1R,3R)-1-acetoxy-4-methyl-3-{methyl[(2S)-2-({[(2R)-1-methylpiperidin-2-yl]-carbonyl}amino)hexanoyl]amino}pentyl]-1,3-thiazol-4-yl}carbonyl)amino]-2-methyl-5-phenylpentanoate], for which the IC50 in data set [1] (read-out: MES SA, IC50) is 0.937 nM; in data set [1] (setting [5]), 0.937 nM; in data set [2] (read-out: HEK 293T, IC50), 0.53 nM; in data set [2] (setting [6]), 0.53 nM; in data set [3] (read-out: MES SA DX, IC50), greater than 1000 nM; in data set [3] (setting [7]), greater than 1000 nM. In addition, the “cytotoxicity potency” value in data set [4] was “lack of or significantly lower cytotoxicities”.

Take `CCCC[C@H](NC(=O)[C@H]1CCCN1C)C(=O)N(C)[C@H](C[C@@H](OC(C)=O)c1nc(C(=O)N[C@@H](Cc2ccccc2)C[C@H](C)C(=O)OCC)cs1)C(C)C` [Tb96, Ethyl (2S,4R)-4-[({2-[(1R,3R)-1-acetoxy-4-methyl-3-{methyl[(2S)-2-({[(2R)-1-methylpyrrolidin-2-yl]carbonyl}amino)hexanoyl]amino}pentyl]-1,3-thiazol-4-yl}carbonyl)amino]-2-methyl-5-phenylpentanoate]: the IC50 was 10.5 nM in data set [1] (setting [5]), 5.26 nM in data set [2] (setting [6]) and greater than 1000 nM in data set [3] (setting [7]). Besides, the “cytotoxicity potency” value in data set [4] was “lack of or significantly lower cytotoxicities”.

Consider `CCOC(=O)[C@@H](C)C[C@H](Cc1ccccc1)NC(=O)c1csc([C@@H](C[C@H](C(C)C)N(C)C(=O)[C@H](CCC(C)C)NC(=O)[C@H]2CCCCN2C)OC(C)=O)n1` [Tb97, Ethyl (2S,4R)-4-[({2-[(1R,3R)-1-acetoxy-4-methyl-3-{methyl[(2S)-5-methyl-2-({[(2R)-1-methyl-piperidin-2-yl]carbonyl}amino)hexanoyl]amino}pentyl]-1,3-thiazol-4-yl}carbonyl)amino]-2-methyl-5-phenylpentanoate], for which the IC50 in data set [1] (setting [5]) was 4.65 nM; in data set [2] (setting [6]), 2.87 nM; in data set [3] (setting [7]), greater than 1000 nM. Further, in data set [4], the “cytotoxicity potency” value is recorded as “lack of or significantly lower cytotoxicities”.

As for `CCOC(=O)[C@@H](C)C[C@H](Cc1ccccc1)NC(=O)c1csc([C@@H](C[C@H](C(C)C)N(C)C(=O)[C@H](CCC(C)C)NC(=O)[C@H]2CCCN2C)OC(C)=O)n1` [Tb98, Ethyl (2S,4R)-4-[({2-[(1R,3R)-1-acetoxy-4-methyl-3-{methyl[(2S)-5-methyl-2-({[(2R)-1-methyl-pyrrolidin-2-yl]carbonyl}amino)hexanoyl]amino}pentyl]-1,3-thiazol-4-yl}carbonyl)amino]-2-meth-yl-5-phenylpentanoate], the IC50 in data set [1] (setting [5]) was 41.8 nM; in data set [2] (setting [6]), 26.5 nM; in data set [3] (setting [7]) it was 393 nM. The “cytotoxicity potency” value in data set [4] was “lack of or significantly lower cytotoxicities”.

`COC(=O)[C@@H](C)C[C@H](Cc1ccc(F)cc1)NC(=O)c1csc([C@@H](C[C@H](C(C)C)N(C)C(=O)[C@@H](NC(=O)[C@H]2CCCCN2C)C2CC2)OC(C)=O)n1` [Tb101, Methyl (2S,4R)-4-[({2-[(1R,3R)-1-acetoxy-3-{[(2S)-2-cyclopropyl-2-({[(2R)-1-methylpiperidin-2-yl]-carbonyl}amino)acetyl](methyl)amino}-4-methylpentyl]-1,3-thiazol-4-yl}carbonyl)amino]-5-(4-fluorophenyl)-2-methylpentanoate]: the IC50 in data set [1] (setting [5]), in data set [2] (setting [6]) and in data set [3] (setting [7]) was greater than 1000 nM in each case. The “cytotoxicity potency” value in data set [4] is on record as “loss of activity”.
